Data published in patent US7732633B2, “Arylsulfinate salts in photoinitiator systems for polymerization reactions” (3M Innovative Properties Company, priority 2003, dated 2010).

Experiments:
[1] = in N,N-dimethylformamide, 0.1 molar TBA PF6, versus Ag/0.01M AgNO3 reference electrode, peak current, first scan, 100 mV/sec
Method: The oxidation potential can be determined using cyclic voltammetry. As described herein, the oxidation potential is measured by dissolving the compound of interest in a non-aqueous solvent (i.e., N,N-dimethylformamide) containing a supporting electrolyte (i.e., 0.1 moles/liter tetrabutylammonium hexafluorophosphate). The resulting solution is purged with an inert gas such as argon. A three-electrode configuration is used that includes a working electrode (i.e., a glassy carbon electrode), a reference electrode (i.e., a silver wire in a 0.01 moles/liter of silver nitrate dissolved in acetonitrile), and a counter electrode (i.e., a platinum wire). The oxidation or reduction potential is the voltage corresponding to the maximum current for the oxidation reaction.
The scan rates were 100 mV/sec.
The electrochemical measurements were made using a three-electrode configuration: a reference electrode, a working electrode, and a counter electrode. The reference electrode was a fritted electrode (obtained from Sargent Welch, Buffalo Grove, Ill.) that was filled with 0.01M AgNO3 in acetonitrile and fitted with a silver wire 1 mm in diameter by approximately 19 cm in length. The counter electrode was a platinum wire 1.0 mm in diameter and approximately 16 cm long (overall length) formed into a coil having a coil diameter of approximately 10 mm and a coil length of about 7.5 cm. The working electrode was a glassy carbon electrode, approximately 3.5 mm in diameter (obtained from BAS, Inc., West Lafayette, Ind.). The glassy carbon electrode was polished using first a 3.0 micron aluminum oxide powder/deionized water slurry, then a 0.3 micron alpha alumina powder/deionized water slurry. The polishing powders were obtained from Buehler LTD, Evanston, Ill.
The cell was a 50 mL four neck round bottom flask. Each electrode was sealed in the flask using the appropriately sized rubber septum. The fourth inlet was used to introduce an argon purge to remove oxygen and keep atmospheric moisture out of the cell.
The supporting electrolyte was tetrabutylammonium hexafluorophosphate (TBA PF6) (obtained from Southwestern Analytical Chemicals, Inc., Austin, Tex.). The TBA PF6 was dried overnight in a vacuum oven at 80-90° C. before each experiment. The solvent was N,N-dimethylformamide (DMF), and it was used as received without further purification. The solvent was transferred to the electrochemical cell via syringe under an argon atmosphere to minimize atmospheric moisture uptake.
Electrochemical measurements were made by first preparing a 0.1 molar solution of TBA PF6 in DMF. […] The potential was determined at the peak current for the oxidation or reduction reaction on the first scan.

[2] = time to oxidize 50 weight percent of the compound at room temperature; solutions in acetonitrile-d3; pseudo-first order kinetics
Method: The oxidative stability of the exemplary substituted arylsulfinates was determined by proton nuclear magnetic resonance spectroscopy. Spectra of solutions of the compounds in acetonitrile-d3 were obtained at regular intervals. The resonances of the alkyl groups in the cations were used as an internal standard to assess the oxidation of the anion.

Work on “tetrabutylammonium 4-chlorobenzenesulfinate [Example 1]” yielded an Eox [1] of 0.09 V.
For “tetrabutylammonium 4-cyanobenzenesulfinate [Example 4]”, the Eox [1] was 0.15 V and the “t1/2” value [2] was >300 days.
In the case of “tetrabutylammonium 4-ethoxycarbonylbenzenesulfinate [Example 2]”, the Eox [1] was 0.11 V.
Work on “tetrabutylammonium 4-trifluoromethylbenzenesulfinate [Example 3]” yielded an Eox [1] of 0.18 V.
